Tests used:
Assay type in all cases: functional
Rattus norvegicus [1] = test: In vivo toxicity against Pneumocystis carinii in immunosuppressed rats at a dose of 11 umol/kg/day administered by tail vein injection.
Rattus norvegicus [2] = test: Percent salinte-treated controls were evaluated against Pneumocystis carinii in immunosuppressed rats at a dose of 5.5 umol/kg/day administered by tail vein injection.
Rattus norvegicus [3] = test: Percent salinte-treated controls were evaluated against Pneumocystis carinii in immunosuppressed rats at a dose of 22 umol/kg/day administered by tail vein injection.
Rattus norvegicus [4] = test: Percent salinte-treated controls were evaluated against Pneumocystis carinii in immunosuppressed rats at a dose of 11 umol/kg/day administered by tail vein injection.
Rattus norvegicus [5] = test: Percent salinte-treated controls were evaluated against Pneumocystis carinii in immunosuppressed rats at a dose of 5.5 umol/kg/day administered orally.
Rattus norvegicus [6] = test: In vivo toxicity against Pneumocystis carinii in immunosuppressed rats at a dose of 5.5 umol/kg/day administered orally.
Rattus norvegicus [7] = test: In vivo toxicity against Pneumocystis carinii in immunosuppressed rats at a dose of 0.3 umol/kg/day administered by tail vein injection.
Rattus norvegicus [8] = test: In vivo toxicity against Pneumocystis carinii in immunosuppressed rats at a dose of 5.5 umol/kg/day administered by tail vein injection.
Rattus norvegicus [9] = test: In vivo toxicity against Pneumocystis carinii in immunosuppressed rats at a dose of 33 umol/kg/day administered orally.
Rattus norvegicus [10] = test: Percent salinte-treated controls were evaluated against Pneumocystis carinii in immunosuppressed rats at a dose of 11 umol/kg/day administered orally.
Rattus norvegicus [11] = test: Percent salinte-treated controls were evaluated against Pneumocystis carinii in immunosuppressed rats at a dose of 33 umol/kg/day administered orally.
Rattus norvegicus [12] = test: In vivo toxicity against Pneumocystis carinii in immunosuppressed rats at a dose of 2.7 umol/kg/day administered by tail vein injection.
Rattus norvegicus [13] = test: Percent salinte-treated controls were evaluated against Pneumocystis carinii in immunosuppressed rats at a dose of 2.7 umol/kg/day administered by tail vein injection.
Rattus norvegicus [14] = test: In vivo toxicity against Pneumocystis carinii in immunosuppressed rats at a dose of 22 umol/kg/day administered by tail vein injection.
Rattus norvegicus [15] = test: Percent salinte-treated controls were evaluated against Pneumocystis carinii in immunosuppressed rats at a dose of 0.3 umol/kg/day administered by tail vein injection.
Rattus norvegicus [16] = test: In vivo toxicity against Pneumocystis carinii in immunosuppressed rats at a dose of 11 umol/kg/day administered orally.
Rattus norvegicus [17] = test: Percent salinte-treated controls were evaluated against Pneumocystis carinii in immunosuppressed rats at a dose of 22 umol/kg/day administered orally.
Rattus norvegicus [18] = test: In vivo toxicity against Pneumocystis carinii in immunosuppressed rats at a dose of 22 umol/kg/day administered orally.
Rattus norvegicus [19] = test: In vivo toxicity against Pneumocystis carinii in immunosuppressed rats at a dose of 0.03 umol/kg/day administered by tail vein injection.
Rattus norvegicus [20] = test: In vivo toxicity against Pneumocystis carinii in immunosuppressed rats at a dose of 39.8 umol/kg/day administered orally.
Rattus norvegicus [21] = test: Percent salinte-treated controls were evaluated against Pneumocystis carinii in immunosuppressed rats at a dose of 39.8 umol/kg/day administered orally.
Rattus norvegicus [22] = test: In vivo toxicity against Pneumocystis carinii in immunosuppressed rats at a dose of 66.3 umol/kg/day administered orally.
Rattus norvegicus [23] = test: In vivo toxicity against Pneumocystis carinii in immunosuppressed rats at a dose of 26.6 umol/kg/day administered by tail vein injection.
Rattus norvegicus [24] = test: Percent salinte-treated controls were evaluated against Pneumocystis carinii in immunosuppressed rats at a dose of 66.3 umol/kg/day administered orally.
Rattus norvegicus [25] = test: Percent salinte-treated controls were evaluated against Pneumocystis carinii in immunosuppressed rats at a dose of 0.03 umol/kg/day administered by tail vein injection.
Rattus norvegicus [26] = test: Percent salinte-treated controls were evaluated against Pneumocystis carinii in immunosuppressed rats at a dose of 13.3 umol/kg/day administered by tail vein injection; Not available
Rattus norvegicus [27] = test: In vivo toxicity against Pneumocystis carinii in immunosuppressed rats at a dose of 13.3 umol/kg/day administered by tail vein injection.

In the case of `N=C(NO)c1ccc(-c2ccc(-c3ccc(/C(N)=N\O)cc3)o2)cc1`, the Toxicity (Rattus norvegicus [1]) was 1, the Saline control (Rattus norvegicus [2]) was 42.3% and the Saline control (Rattus norvegicus [3]) was 0.67%. It also gave a Saline control (Rattus norvegicus [4]) of 1.37%, a Saline control (Rattus norvegicus [5]) of 127% and a Toxicity (Rattus norvegicus [6]) of 0. It also gave a Toxicity (Rattus norvegicus [7]) of 0, a Toxicity (Rattus norvegicus [8]) of 1 and a Toxicity (Rattus norvegicus [9]) of 0. The Saline control (Rattus norvegicus [10]) was 197.6%, the Saline control (Rattus norvegicus [11]) was 3.1% and the Toxicity (Rattus norvegicus [12]) was 0. For the same molecule, the Saline control (Rattus norvegicus [13]) was 54.4%, the Toxicity (Rattus norvegicus [14]) was 1 and the Saline control (Rattus norvegicus [15]) was 203.6%. The Toxicity (Rattus norvegicus [16]) was 0.
`CCONC(=N)c1ccc(-c2ccc(-c3ccc(C(=N)NOCC)cc3)o2)cc1` was tested, and the Saline control (Rattus norvegicus [3]) was 104.7%, the Toxicity (Rattus norvegicus [9]) was 0 and the Saline control (Rattus norvegicus [11]) was 121.5%. For the same molecule, the Toxicity (Rattus norvegicus [14]) was 1.
Molecule `CONC(=N)c1ccc(-c2ccc(-c3ccc(C(=N)NOC)cc3)o2)cc1` [PAFURAMIDINE] has a Saline control (Rattus norvegicus [17]) of 12%, a Saline control (Rattus norvegicus [3]) of 14.3% and a Saline control (Rattus norvegicus [5]) of 264.2%. It also gave a Toxicity (Rattus norvegicus [6]) of 0, a Toxicity (Rattus norvegicus [9]) of 0 and a Saline control (Rattus norvegicus [10]) of 34.7%. The Saline control (Rattus norvegicus [11]) was 1.82%, the Toxicity (Rattus norvegicus [18]) was 0 and the Toxicity (Rattus norvegicus [14]) was 0. For the same molecule, the Toxicity (Rattus norvegicus [16]) was 0.
`N=C(N)c1ccc(-c2ccc(-c3ccc(C(=N)N)cc3)o2)cc1` [FURAMIDINE] was tested, and the Toxicity (Rattus norvegicus [19]) was 0, the Toxicity (Rattus norvegicus [20]) was 0 and the Toxicity (Rattus norvegicus [7]) was 0. For the same molecule, the Saline control (Rattus norvegicus [21]) was 42.3%, the Toxicity (Rattus norvegicus [22]) was 0 and the Toxicity (Rattus norvegicus [23]) was 1. The Toxicity (Rattus norvegicus [12]) was 0, the Saline control (Rattus norvegicus [24]) was 25.2% and the Saline control (Rattus norvegicus [13]) was 7.26%. For the same molecule, the Saline control (Rattus norvegicus [15]) was 6.92%, the Saline control (Rattus norvegicus [25]) was 26.3% and the Saline control (Rattus norvegicus [26]) was 0.79%. The Toxicity (Rattus norvegicus [27]) was 0.

Source: ChEMBL document CHEMBL1151527, “Anti-pneumocystis activity of bis-amidoximes and bis-o-alkylamidoximes prodrugs” (1996)
